In the supplement of paper PMC13380429:

Legend:
A549-ACE2 [1] = assay: drug-induced phospholipidosis relative to tamoxifen; higher = more phospholipidosis
[2] = system: A549-ACE2 infected with SARS-CoV-2; assay: morphology score (similarity to uninfected cells); higher = more like uninfected cells; details: 24 h
HepG2 [3] = assay: cell viability relative to DMSO; higher = less toxic; details: 72 h
U2OS [4] = assay: as above; details: 72 h
Caco-2 [5] = assay: as above; details: 72 h
Calu-3 [6] = assay: as above; details: 72 h
Vero E6 [7] = assay: as above; details: 72 h
U2OS [8] = assay: relative viability EC50 (midpoint between 100% and the lowest measured viability); higher = less toxic; details: 72 h
Caco-2 [9] = assay: as above; details: 72 h
Calu-3 [10] = assay: as above; details: 72 h
Vero E6 [11] = assay: as above; details: 72 h
[12] = system: A549-ACE2 infected with SARS-CoV-2; assay: SARS-CoV-2 infection rate relative to DMSO; higher = more infection; details: 24 h
HepG2 [13] = assay: drug sensitivity score (DSS) for viability; higher = more toxic; extreme values may be limits of the assay; details: 72 h
U2OS [14] = assay: as above; details: 72 h
Caco-2 [15] = assay: as above; details: 72 h
Calu-3 [16] = assay: as above; details: 72 h
Vero E6 [17] = assay: as above; details: 72 h
A549-ACE2 [18] = assay: phospholipidosis EC50; higher = less potent phospholipidosis inducer
[19] = system: A549-ACE2 infected with SARS-CoV-2; assay: cell count relative to DMSO; higher = less toxic; details: 24 h

For `COc1ccc(/C=C/C(=O)/C=C(O)/C=C/c2ccc(OC)c(OC)c2)cc1OC` [ASC-J9], the drug-induced phospholipidosis (A549-ACE2 [1]; 0.3 µM, 24 h) was 0.46%, the drug-induced phospholipidosis (A549-ACE2 [1]; 0.3 µM, 48 h) was 1.84% and the drug-induced phospholipidosis (A549-ACE2 [1]; 0.3 µM, 72 h) was 4.19%. It also gave a drug-induced phospholipidosis (A549-ACE2 [1]; 0.833333 µM, 24 h) of -1.23%, a drug-induced phospholipidosis (A549-ACE2 [1]; 0.833333 µM, 48 h) of -1.1% and a drug-induced phospholipidosis (A549-ACE2 [1]; 0.833333 µM, 72 h) of -0.9%. The drug-induced phospholipidosis (A549-ACE2 [1]; 3.33333 µM, 24 h) was 4.99%, the drug-induced phospholipidosis (A549-ACE2 [1]; 3.33333 µM, 48 h) was 1.58% and the drug-induced phospholipidosis (A549-ACE2 [1]; 3.33333 µM, 72 h) was 1.28%. It also gave a drug-induced phospholipidosis (A549-ACE2 [1]; 6.66667 µM, 24 h) of 24.2%, a drug-induced phospholipidosis (A549-ACE2 [1]; 6.66667 µM, 48 h) of 8.23% and a drug-induced phospholipidosis (A549-ACE2 [1]; 6.66667 µM, 72 h) of 7.61%. It also gave a drug-induced phospholipidosis (A549-ACE2 [1]; 10 µM, 24 h) of 40.1%, a drug-induced phospholipidosis (A549-ACE2 [1]; 10 µM, 48 h) of 13.3% and a drug-induced phospholipidosis (A549-ACE2 [1]; 10 µM, 72 h) of 9.79%. For the same compound, the drug-induced phospholipidosis (A549-ACE2 [1]; 30 µM, 24 h) was 139%, the drug-induced phospholipidosis (A549-ACE2 [1]; 30 µM, 48 h) was 45.5% and the drug-induced phospholipidosis (A549-ACE2 [1]; 30 µM, 72 h) was 37.4%. The morphology score ([2]; 0.3 µM) was 0.01, the morphology score ([2]; 3 µM) was -0.06 and the morphology score ([2]; 10 µM) was 0.39. The morphology score ([2]; 30 µM) was 0.56, the cell viability (HepG2 [3]; 1 nM) was 118% and the cell viability (HepG2 [3]; 10 nM) was 106%. The cell viability (HepG2 [3]; 100 nM) was 111%, the cell viability (HepG2 [3]; 1000 nM) was 95.4% and the cell viability (HepG2 [3]; 10000 nM) was 55.8%. It also gave a cell viability (U2OS [4]; 1 nM) of 96.1%, a cell viability (U2OS [4]; 10 nM) of 97.5% and a cell viability (U2OS [4]; 100 nM) of 95.3%. It also gave a cell viability (U2OS [4]; 1000 nM) of 98.1%, a cell viability (U2OS [4]; 10000 nM) of 26.5% and a cell viability (Caco-2 [5]; 1 nM) of 90.7%. The cell viability (Caco-2 [5]; 10 nM) was 92.8%, the cell viability (Caco-2 [5]; 100 nM) was 92.9% and the cell viability (Caco-2 [5]; 1000 nM) was 100%. It also gave a cell viability (Caco-2 [5]; 10000 nM) of 45.2%, a cell viability (Calu-3 [6]; 1 nM) of 96.5% and a cell viability (Calu-3 [6]; 10 nM) of 94.9%. For the same compound, the cell viability (Calu-3 [6]; 100 nM) was 110%, the cell viability (Calu-3 [6]; 1000 nM) was 108% and the cell viability (Calu-3 [6]; 10000 nM) was 81.9%. It also gave a cell viability (Vero E6 [7]; 1 nM) of 99.2%, a cell viability (Vero E6 [7]; 10 nM) of 93.9% and a cell viability (Vero E6 [7]; 100 nM) of 103%. For the same compound, the cell viability (Vero E6 [7]; 1000 nM) was 101%, the cell viability (Vero E6 [7]; 10000 nM) was 103% and the “relative viability EC50” value (U2OS [8]) was 2.98 µM. The “relative viability EC50” value (Caco-2 [9]) was 3.19 µM, the “relative viability EC50” value (Calu-3 [10]) was > 10 µM and the “relative viability EC50” value (Vero E6 [11]) was > 10 µM. The SARS-CoV-2 infection rate ([12]; 0.3 µM) was 98%, the SARS-CoV-2 infection rate ([12]; 3 µM) was 97% and the SARS-CoV-2 infection rate ([12]; 10 µM) was 87%. For the same compound, the SARS-CoV-2 infection rate ([12]; 30 µM) was 25%, the drug sensitivity score (HepG2 [13]) was 3 and the drug sensitivity score (U2OS [14]) was 4.3. For the same compound, the drug sensitivity score (Caco-2 [15]) was 2.9, the drug sensitivity score (Calu-3 [16]) was 0.3 and the drug sensitivity score (Vero E6 [17]) was 0. For the same compound, the “phospholipidosis EC50” value (A549-ACE2 [18]; 24 h) was 20 µM, the cell count ([19]; 0.3 µM) was 100% and the cell count ([19]; 3 µM) was 101%. For the same compound, the cell count ([19]; 10 µM) was 98% and the cell count ([19]; 30 µM) was 70%.

`Clc1ccccc1CNC[C@H]1CC[C@H](CNCc2ccccc2Cl)CC1` [AY-9944] gave a drug-induced phospholipidosis (A549-ACE2 [1]; 0.3 µM, 24 h) of 20.6%, a drug-induced phospholipidosis (A549-ACE2 [1]; 0.3 µM, 48 h) of 14.1% and a drug-induced phospholipidosis (A549-ACE2 [1]; 0.3 µM, 72 h) of 17.5%. For the same compound, the drug-induced phospholipidosis (A549-ACE2 [1]; 0.833333 µM, 24 h) was 37.8%, the drug-induced phospholipidosis (A549-ACE2 [1]; 0.833333 µM, 48 h) was 38.1% and the drug-induced phospholipidosis (A549-ACE2 [1]; 0.833333 µM, 72 h) was 29.9%. For the same compound, the drug-induced phospholipidosis (A549-ACE2 [1]; 3.33333 µM, 24 h) was 77.7%, the drug-induced phospholipidosis (A549-ACE2 [1]; 3.33333 µM, 48 h) was 78.4% and the drug-induced phospholipidosis (A549-ACE2 [1]; 3.33333 µM, 72 h) was 79.3%. The drug-induced phospholipidosis (A549-ACE2 [1]; 6.66667 µM, 24 h) was 88.2%, the drug-induced phospholipidosis (A549-ACE2 [1]; 6.66667 µM, 48 h) was 112% and the drug-induced phospholipidosis (A549-ACE2 [1]; 6.66667 µM, 72 h) was 115%. It also gave a drug-induced phospholipidosis (A549-ACE2 [1]; 10 µM, 24 h) of 96.4%, a drug-induced phospholipidosis (A549-ACE2 [1]; 10 µM, 48 h) of 116% and a drug-induced phospholipidosis (A549-ACE2 [1]; 10 µM, 72 h) of 128%. The drug-induced phospholipidosis (A549-ACE2 [1]; 30 µM, 24 h) was 121%, the drug-induced phospholipidosis (A549-ACE2 [1]; 30 µM, 48 h) was 148% and the drug-induced phospholipidosis (A549-ACE2 [1]; 30 µM, 72 h) was 157%. The morphology score ([2]; 0.3 µM) was 0.42, the morphology score ([2]; 3 µM) was 0.76 and the morphology score ([2]; 10 µM) was 0.56. It also gave a morphology score ([2]; 30 µM) of 0.08, a cell viability (HepG2 [3]; 1 nM) of 104% and a cell viability (HepG2 [3]; 10 nM) of 96%. For the same compound, the cell viability (HepG2 [3]; 100 nM) was 110%, the cell viability (HepG2 [3]; 1000 nM) was 98.1% and the cell viability (HepG2 [3]; 10000 nM) was 59.2%. For the same compound, the cell viability (U2OS [4]; 1 nM) was 97.4%, the cell viability (U2OS [4]; 10 nM) was 102% and the cell viability (U2OS [4]; 100 nM) was 103%. For the same compound, the cell viability (U2OS [4]; 1000 nM) was 107%, the cell viability (U2OS [4]; 10000 nM) was 92.8% and the cell viability (Caco-2 [5]; 1 nM) was 99.5%. It also gave a cell viability (Caco-2 [5]; 10 nM) of 108%, a cell viability (Caco-2 [5]; 100 nM) of 99.7% and a cell viability (Caco-2 [5]; 1000 nM) of 95.1%. The cell viability (Caco-2 [5]; 10000 nM) was 83.7%, the cell viability (Calu-3 [6]; 1 nM) was 97.7% and the cell viability (Calu-3 [6]; 10 nM) was 104%. The cell viability (Calu-3 [6]; 100 nM) was 106%, the cell viability (Calu-3 [6]; 1000 nM) was 108% and the cell viability (Calu-3 [6]; 10000 nM) was 7.3%. The cell viability (Vero E6 [7]; 1 nM) was 102%, the cell viability (Vero E6 [7]; 10 nM) was 104% and the cell viability (Vero E6 [7]; 100 nM) was 105%. The cell viability (Vero E6 [7]; 1000 nM) was 94.5%, the cell viability (Vero E6 [7]; 10000 nM) was 90% and the “relative viability EC50” value (U2OS [8]) was > 10 µM. The “relative viability EC50” value (Caco-2 [9]) was > 10 µM, the “relative viability EC50” value (Calu-3 [10]) was 3.6 µM and the “relative viability EC50” value (Vero E6 [11]) was > 10 µM. It also gave an SARS-CoV-2 infection rate ([12]; 0.3 µM) of 86%, an SARS-CoV-2 infection rate ([12]; 3 µM) of 39% and an SARS-CoV-2 infection rate ([12]; 10 µM) of 17%. For the same compound, the SARS-CoV-2 infection rate ([12]; 30 µM) was 34%, the drug sensitivity score (HepG2 [13]) was 2.3 and the drug sensitivity score (U2OS [14]) was 0. The drug sensitivity score (Caco-2 [15]) was 0.8, the drug sensitivity score (Calu-3 [16]) was 4.6 and the drug sensitivity score (Vero E6 [17]) was 0. For the same compound, the “phospholipidosis EC50” value (A549-ACE2 [18]; 24 h) was 5.85 µM, the “phospholipidosis EC50” value (A549-ACE2 [18]; 48 h) was 5.4 µM and the “phospholipidosis EC50” value (A549-ACE2 [18]; 72 h) was 4.53 µM. For the same compound, the cell count ([19]; 0.3 µM) was 104%, the cell count ([19]; 3 µM) was 123% and the cell count ([19]; 10 µM) was 126%. It also gave a cell count ([19]; 30 µM) of 113%.
